In US20260327244A1, “PYRIDO[4,3-D]PYRIMIDINE COMPOUNDS” (Pfizer Inc., priority 2022, published 2026):

Legend:
[1] = target: G12D KRAS (aa1-185) (Homo sapiens, UniProt P01116, G12D); assay: biochemical;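 further: surface plasmon resonance at 10 °C, KRAS captured on a streptavidin chip in GDP-containing buffer, compound dilution series injected, blank streptavidin surface as reference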
Procedure: (§1) SPR assay was used to measure the kinetic binding constant (KD) of Examples of the present invention.
(§2) The binding affinity and kinetics of Examples of the present invention were measured by Surface Plasmon Resonance (SPR) using Biacore 8K or 8K+ (Cytiva, Marlborough, MA) instruments. Recombinant, C-terminal site-specific biotinylated, wild-type (WT) KRAS (aa1-185), G12D KRAS (aa1-185), G12C KRAS (aa2-184), G12V KRAS (aa2-184), WT HRAS (aa2-184) and WT NRAS (aa2-185) proteins purified in presence of 1 μM GDP were used in these experiments. Binding measurements were performed parallelly in sets of either WT/G12D/G12C/G12V KRAS or WT K/H/N RAS proteins.
(§3) Biacore instrument was desorbed and docked with a Series S Sensor Chip SA. The proteins were diluted to 50 μg/mL with the assay buffer (50 mM HEPES, 150 mM NaCl, 10 μM GDP, 5 mM MgCl2, 0.5 mM TCEP, 5% glycerol, 0.02% Tween-20, 2% DMSO, pH 7.2) and immobilized at a flow rate of 3 μL/min at 10° C. with a contact time of 15 min. to capture ~3000-4000 RUs of proteins on the surface. The functionalized surface was then equilibrated with assay buffer for approximately 1 hour. Un-functionalized SA surfaces with no immobilized protein served as reference for binding kinetic analysis. Compound binding kinetics were measured in either multi-cycle or single-cycle kinetic format.
(§4) A 2-fold, 10-point serial dilution of test compounds was set-up in a 96-well microplate (Greiner; Cat #650101) with a top concentration of either 10 μM or 100 μM. Binding kinetics was measured at 10° C. by injecting serial dilution of compounds onto both reference and RAS immobilized channels at a flow rate of 100 μL/min and association time of 90 seconds. Compound dissociation was monitored for at least 400 seconds during each cycle. No additional regeneration was used. DMSO calibration curve was obtained before and after compound analysis by injecting 0-4% of DMSO in assay buffer. A suitable compound with known affinity and kinetics was tested once in every experiment as a positive control to assess activity of the captured protein on the surface.
(§5) A 3-fold, 6-point serial dilution of compounds was set-up in a deep 96-well microplate (Greiner Bio; Cat #780201) with the highest concentration of 1 μM (concentration range: 0.004-1 μM). Binding kinetics was measured at 10° C. by injecting serial dilutions of compounds in increasing order onto reference as well as RAS immobilized channels at a flow rate of 100 μL/min and association time of 120 seconds. Compound dissociation was monitored for at least 3600 seconds. Two buffer blanks were also run in a single-cycle kinetics format before the compound run for double referencing. No additional regeneration was used. DMSO calibration curve was obtained before and after compound analysis by injecting 0-4% of DMSO in the assay buffer. A suitable compound with known affinity and kinetics was tested once in every experiment as a positive control to assess activity of the captured protein on the surface.
(§6) Both MCK and SCK data were processed and analyzed using Biacore Insight evaluation software (Cytiva, Marlborough, MA)). […] The adequateness of the fit was judged by c^2 values and the randomness of residue distribution.
(§7) A geometric mean of binding constant KD was provided when an Example was tested more than once (n is testing replicate number).

[2] = target: T1, wild-type (WT) KRAS (aa1-185) (Homo sapiens, UniProt P01116); assay: KRAS Surface Plasma Resonance (SPR) binding assay, WT KRAS; conditions: SPR at 10 °C, geometric mean when tested more than once
T1 construct: wild-type (WT) KRAS (aa1-185)
T1 sequence (P01116 1-185 isoform P01116-2): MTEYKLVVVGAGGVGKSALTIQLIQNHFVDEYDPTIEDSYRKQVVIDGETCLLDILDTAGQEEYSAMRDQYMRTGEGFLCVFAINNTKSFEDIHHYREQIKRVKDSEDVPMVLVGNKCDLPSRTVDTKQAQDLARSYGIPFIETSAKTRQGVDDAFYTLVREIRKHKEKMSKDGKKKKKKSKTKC
Excerpt: No additional regeneration was used.
Compound dissociation was monitored for at least 3600 seconds. […] No additional regeneration was used.

[3] = target: G12V KRAS (aa2-184) (Homo sapiens, UniProt P01116, G12V); assay: biochemical
G12V KRAS (aa2-184), sequence (P01116 2-184 isoform P01116-2 G12V): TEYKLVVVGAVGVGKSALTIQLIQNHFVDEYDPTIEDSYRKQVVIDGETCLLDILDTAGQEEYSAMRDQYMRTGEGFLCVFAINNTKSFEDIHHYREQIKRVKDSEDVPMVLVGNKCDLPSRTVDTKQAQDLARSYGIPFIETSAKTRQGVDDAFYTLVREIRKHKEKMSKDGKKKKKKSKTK
Procedure: as §1, §2, §3, §4, §5, §6, §7

[4] = target: G12C KRAS (aa2-184) (Homo sapiens, UniProt P01116, G12C); assay: biochemical
G12C KRAS (aa2-184), sequence (P01116 2-184 isoform P01116-2 G12C): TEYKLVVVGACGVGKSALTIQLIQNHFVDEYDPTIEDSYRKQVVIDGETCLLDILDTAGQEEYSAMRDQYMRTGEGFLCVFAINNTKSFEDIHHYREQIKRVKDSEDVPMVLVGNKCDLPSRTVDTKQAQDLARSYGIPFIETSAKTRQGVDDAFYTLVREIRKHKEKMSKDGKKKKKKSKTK
Procedure: as §1, §2, §3, §4, §5, §6, §7

G12D KRAS (aa1-185), sequence (P01116 1-185 isoform P01116-2 G12D): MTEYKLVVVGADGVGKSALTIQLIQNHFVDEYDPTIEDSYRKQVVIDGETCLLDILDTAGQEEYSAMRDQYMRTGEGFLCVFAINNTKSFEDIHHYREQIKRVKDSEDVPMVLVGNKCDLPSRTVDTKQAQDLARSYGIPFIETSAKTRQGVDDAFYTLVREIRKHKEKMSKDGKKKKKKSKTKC

Compound | Kd [1] | Kd [2] | Kd [3] | Kd [4]
C#Cc1cccc2cc(O)cc(-c3ncc4c(N5C[C@H]6C[C@@H](O)[C@@H](C5)O6)nc(OC[C@@]56CCCN5C[C@H](F)C6)nc4c3F)c12 (relative stereo) [Example 18, (1R*,5R*,6R*)-3-[7-(8-ethynyl-3-hydroxynaphthalen-1-yl)-8-fluoro-2-{[(2R,7aS)-2-fluorotetrahydro-1H-pyrrolizin-7a(5H)-yl]methoxy}pyrido[4,3-d]pyrimidin-4-yl]-8-oxa-3-azabicyclo[3.2.1]octan-6-ol] | 0.214 nM | 0.092 nM | 0.13 nM | 0.759 nM
Oc1cc(-c2ncc3c(N4C[C@H]5C[C@@H](O)[C@H]5C4)nc(OC[C@@]45CCCN4C[C@H](F)C5)nc3c2F)c2c(Cl)cccc2c1 (relative stereo) [Example 21, (1S*,5R*,6R*)-3-[7-(8-chloro-3-hydroxynaphthalen-1-yl)-8-fluoro-2-{[(2R,7aS)-2-fluorotetrahydro-1H-pyrrolizin-7a(5H)-yl]methoxy}pyrido[4,3-d]pyrimidin-4-yl]-3-azabicyclo[3.2.0]heptan-6-ol] | 1.01 nM | 1.76 nM | 1.46 nM | 1.9 nM
Oc1cc(-c2ncc3c(N4C[C@@H]5C[C@H](O)[C@@H]5C4)nc(OC[C@@]45CCCN4C[C@H](F)C5)nc3c2F)c2c(Cl)cccc2c1 (relative stereo) [Example 22, (1R*,5S*,6S*)-3-[7-(8-chloro-3-hydroxynaphthalen-1-yl)-8-fluoro-2-{[(2R,7aS)-2-fluorotetrahydro-1H-pyrrolizin-7a(5H)-yl]methoxy}pyrido[4,3-d]pyrimidin-4-yl]-3-azabicyclo[3.2.0]heptan-6-ol] | 36.9 nM | 11.9 nM | 46.7 nM | 42.4 nM
C#Cc1cccc2cc(O)cc(-c3ncc4c(N5C[C@@H]6C[C@H](O)[C@H](C5)O6)nc(OC[C@@]56CCCN5C[C@H](F)C6)nc4c3F)c12 (single isomer, unassigned) [Example 19, (1S*,5S*,6S*)-3-[7-(8-ethynyl-3-hydroxynaphthalen-1-yl)-8-fluoro-2-{[(2R,7aS)-2-fluorotetrahydro-1H-pyrrolizin-7a(5H)-yl]methoxy}pyrido[4,3-d]pyrimidin-4-yl]-8-oxa-3-azabicyclo[3.2.1]octan-6-ol] | 78.3 nM | 27.9 nM | 91.7 nM | 84.7 nM
C#Cc1cccc2cc(O)cc(-c3ncc4c(N5CCN(C(C)=O)[C@@H](CC#N)C5)nc(OC[C@@]56CCCN5C[C@H](F)C6)nc4c3F)c12 [Example 4, {(2S)-1-acetyl-4-[7-(8-ethynyl-3-hydroxynaphthalen-1-yl)-8-fluoro-2-{[(2R,7aS)-2-fluorotetrahydro-1H-pyrrolizin-7a(5H)-yl]methoxy}pyrido[4,3-d]pyrimidin-4-yl]piperazin-2-yl}acetonitrile] | 14.1 nM | 0.308 nM | 3.69 nM | 1.94 nM
C#Cc1cccc2cc(O)cc(-c3ncc4c(N5C[C@@H]6C[C@H](C5)[C@H](O)C6)nc(OC[C@@]56CCCN5C[C@H](F)C6)nc4c3F)c12 [Example 9, (1R,5R,6R)-3-[7-(8-ethynyl-3-hydroxynaphthalen-1-yl)-8-fluoro-2-{[(2R,7aS)-2-fluorotetrahydro-1H-pyrrolizin-7a(5H)-yl]methoxy}pyrido[4,3-d]pyrimidin-4-yl]-3-azabicyclo[3.2.1]octan-6-ol] | 0.099 nM | 0.019 nM | 0.308 nM | 0.447 nM
Oc1cc(-c2ncc3c(N4C[C@@H]5C[C@H](C4)[C@H](O)C5)nc(OC[C@@]45CCCN4C[C@H](F)C5)nc3c2F)c2ccccc2c1 [Example 17, (1R,5R,6R)-3-[8-fluoro-2-{[(2R,7aS)-2-fluorotetrahydro-1H-pyrrolizin-7a(5H)-yl]methoxy}-7-(3-hydroxynaphthalen-1-yl)pyrido[4,3-d]pyrimidin-4-yl]-3-azabicyclo[3.2.1]octan-6-ol] | 0.553 nM | 0.362 nM | 0.269 nM | 0.963 nM
C#Cc1c(F)ccc2cc(O)cc(-c3nc4c5c(nc(OC[C@@]67CCCN6C[C@H](F)C7)nc5c3F)N(C)CCO4)c12 [Example 24, 5-ethynyl-6-fluoro-4-(4-fluoro-2-{[(2R,7aS)-2-fluorotetrahydro-1H-pyrrolizin-7a(5H)-yl]methoxy}-10-methyl-9,10-dihydro-8H-7-oxa-1,3,6,10-tetraazacyclohepta[1,2,3-de]naphthalen-5-yl)naphthalen-2-ol] | 0.081 nM | 0.145 nM | 0.052 nM | 0.079 nM
C#Cc1c(F)ccc2cc(O)cc(-c3nc4c5c(nc(OC[C@@]67CCCN6C[C@H](F)C7)nc5c3F)N(CCO)CCO4)c12 [Example 26, 5-ethynyl-6-fluoro-4-[4-fluoro-2-{[(2R,7aS)-2-fluorotetrahydro-1H-pyrrolizin-7a(5H)-yl]methoxy}-10-(2-hydroxyethyl)-9,10-dihydro-8H-7-oxa-1,3,6,10-tetraazacyclohepta[1,2,3-de]naphthalen-5-yl]naphthalen-2-ol] | 0.046 nM | 0.014 nM | 0.117 nM | 0.031 nM

Next, values leading:

Kd [1] | Kd [2] | Kd [3] | Kd [4] | Compound
11.4 nM | 2.55 nM | 6.71 nM | 8.33 nM | C#Cc1cccc2cc(O)cc(-c3ncc4c(N5C[C@H](CC#N)[C@@H](F)C5)nc(OC[C@@]56CCCN5C[C@H](F)C6)nc4c3F)c12 (mixture of isomers) [Example 7, {(3SR,4RS)-1-[7-(8-ethynyl-3-hydroxynaphthalen-1-yl)-8-fluoro-2-{[(2R,7aS)-2-fluorotetrahydro-1H-pyrrolizin-7a(5H)-yl]methoxy}pyrido[4,3-d]pyrimidin-4-yl]-4-fluoropyrrolidin-3-yl}acetonitrile]
0.268 nM | 0.273 nM | 0.454 nM | 1.23 nM | C#Cc1cccc2cc(O)cc(-c3ncc4c(N5CCC[C@@H](CC#N)C5)nc(OC[C@@]56CCCN5C[C@H](F)C6)nc4c3F)c12 [Example 1, {(3S)-1-[7-(8-ethynyl-3-hydroxynaphthalen-1-yl)-8-fluoro-2-{[(2R,7aS)-2-fluorotetrahydro-1H-pyrrolizin-7a(5H)-yl]methoxy}pyrido[4,3-d]pyrimidin-4-yl]piperidin-3-yl}acetonitrile]
1.89 nM | 0.422 nM | 0.515 nM | 1.64 nM | C#Cc1cccc2cc(O)cc(-c3ncc4c(N5C[C@H]6CC[C@@H](C5)O6)nc(OC[C@@]56CCCN5C[C@H](F)C6)nc4c3F)c12 [Example 2, 5-ethynyl-4-(8-fluoro-2-{[(2R,7aS)-2-fluorotetrahydro-1H-pyrrolizin-7a(5H)-yl]methoxy}-4-[(1R,5S)-8-oxa-3-azabicyclo[3.2.1]octan-3-yl]pyrido[4,3-d]pyrimidin-7-yl)naphthalen-2-ol]
10.5 nM | 2.89 nM | 22.1 nM | 11.4 nM | C#Cc1cccc2cc(O)cc(-c3ncc4c(N5CC[C@@](C)(CC#N)C5)nc(OC[C@@]56CCCN5C[C@H](F)C6)nc4c3F)c12 [Example 5, {(3S)-1-[7-(8-ethynyl-3-hydroxynaphthalen-1-yl)-8-fluoro-2-{[(2R,7aS)-2-fluorotetrahydro-1H-pyrrolizin-7a(5H)-yl]methoxy}pyrido[4,3-d]pyrimidin-4-yl]-3-methylpyrrolidin-3-yl}acetonitrile]
2.43 nM | 1.89 nM | 1.35 nM | 2.67 nM | C#Cc1cccc2cc(O)cc(-c3ncc4c(N5CC[C@@H](CC#N)C5)nc(OC[C@@]56CCCN5C[C@H](F)C6)nc4c3F)c12 [Example 6, {(3S)-1-[7-(8-ethynyl-3-hydroxynaphthalen-1-yl)-8-fluoro-2-{[(2R,7aS)-2-fluorotetrahydro-1H-pyrrolizin-7a(5H)-yl]methoxy}pyrido[4,3-d]pyrimidin-4-yl]pyrrolidin-3-yl}acetonitrile]
1.69 nM | 0.398 nM | 11.5 nM | 1.54 nM | C#Cc1cccc2cc(O)cc(-c3ncc4c(N5CCC[C@@](C)(CC#N)C5)nc(OC[C@@]56CCCN5C[C@H](F)C6)nc4c3F)c12 [Example 8, {(3S)-1-[7-(8-ethynyl-3-hydroxynaphthalen-1-yl)-8-fluoro-2-{[(2R,7aS)-2-fluorotetrahydro-1H-pyrrolizin-7a(5H)-yl]methoxy}pyrido[4,3-d]pyrimidin-4-yl]-3-methylpiperidin-3-yl}acetonitrile]
23.6 nM | 19.7 nM | 98.7 nM | 38.9 nM | N#C[C@@H]1CCCN1c1nc(OC[C@@]23CCCN2C[C@H](F)C3)nc2c(F)c(-c3cc(O)cc4ccc(F)c(F)c34)ncc12 [Example 11, (2S)-1-[7-(7,8-difluoro-3-hydroxynaphthalen-1-yl)-8-fluoro-2-{[(2R,7aS)-2-fluorotetrahydro-1H-pyrrolizin-7a(5H)-yl]methoxy}pyrido[4,3-d]pyrimidin-4-yl]pyrrolidine-2-carbonitrile]
0.128 nM | 0.118 nM | 0.274 nM | 0.749 nM | C#Cc1c(F)ccc2cc(O)cc(-c3ncc4c(N5CCC[C@@H](CC#N)C5)nc(OC[C@@]56CCCN5C[C@H](F)C6)nc4c3F)c12 [Example 15, {(3S)-1-[7-(8-ethynyl-7-fluoro-3-hydroxynaphthalen-1-yl)-8-fluoro-2-{[(2R,7aS)-2-fluorotetrahydro-1H-pyrrolizin-7a(5H)-yl]methoxy}pyrido[4,3-d]pyrimidin-4-yl]piperidin-3-yl}acetonitrile]
